Measurements as given in patent US7897369B2, “Isoprenoid wax ester synthases, isoprenoid acyl CoA-synthetases, and uses thereof” (Regents of the University of Minnesota, priority 2007, dated 2011).

Key:
Format in all cases: biochemical, Marinobacter hydrocarbonoclasticus DSM 8798
WS2 [1] = target: T1, WS2 (Marinobacter nauticus, UniProt A3RE51); assay: Coupled enzyme assay, WS substrate profile (TLC); design: key to WE formation (spot intensity of wax ester products on TLC), WS2, C16 / WE formation (spot intensity of wax ester products on TLC), WS2, Phytol / WE formation (spot intensity of wax ester products on TLC), WS2, Farnesol / WE formation (spot intensity of wax ester products on TLC), WS2, C10 / WE formation (spot intensity of wax ester products on TLC), WS2, C12 / WE formation (spot intensity of wax ester products on TLC), WS2, C14: no activity (−); ranging from no activity (−) to most active (+++); ranging from no activity (−) to most active (+++); most active (+++); settings: 12 h at 37° C., each substrate 250 μM; for WE formation (spot intensity of wax ester products on TLC), WS2, Farnesol: alcohol farnesol; for WE formation (spot intensity of wax ester products on TLC), WS2, Phytol: alcohol phytol; for WE formation (spot intensity of wax ester products on TLC), WS2, C10: fatty alcohol C10; for WE formation (spot intensity of wax ester products on TLC), WS2, C12: fatty alcohol C12; for WE formation (spot intensity of wax ester products on TLC), WS2, C14: fatty alcohol C14; for WE formation (spot intensity of wax ester products on TLC), WS2, C16: fatty alcohol C16
T1 sequence (A3RE51 entry or part of it): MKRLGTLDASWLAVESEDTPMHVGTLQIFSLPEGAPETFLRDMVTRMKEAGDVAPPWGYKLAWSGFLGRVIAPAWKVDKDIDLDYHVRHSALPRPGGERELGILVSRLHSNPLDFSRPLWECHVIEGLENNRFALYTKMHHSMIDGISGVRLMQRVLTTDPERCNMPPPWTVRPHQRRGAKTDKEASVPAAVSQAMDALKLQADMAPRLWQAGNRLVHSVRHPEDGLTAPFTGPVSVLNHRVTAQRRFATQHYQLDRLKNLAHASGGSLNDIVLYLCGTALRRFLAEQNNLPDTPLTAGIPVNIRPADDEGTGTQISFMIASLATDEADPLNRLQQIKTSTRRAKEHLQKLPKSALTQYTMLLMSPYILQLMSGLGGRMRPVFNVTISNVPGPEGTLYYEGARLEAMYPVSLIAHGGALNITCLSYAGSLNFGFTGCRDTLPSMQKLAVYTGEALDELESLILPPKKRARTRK
Experimental: (§1) Stock solutions of various substrates were prepared in 50 mM Tris-HCl buffer (pH 8) containing 1% gum arabic, 12.5 μg bovine serum albumin ml^−1, 0.1% taurocholate, and either 100 mM fatty acid, isoprenoid acid, fatty alcohol, or isoprenoid alcohol. Stock solutions were sonicated to disperse the substrates. Substrate profiles of the three WS were tested using coupled enzyme in vitro reactions in which the CoA synthetases Acs1 and Acs2 are added to synthesize the CoA-activated fatty acid phytanic acid substrates from corresponding acid precursors for the WS reactions. Assays were carried out in 500-μl reactions containing in 50 mM Tris-HCl buffer (pH 8.0), 12.5 μl of each acid, and alcohol substrate stock solution (final concentrations of each substrate of 250 μM), 10 mM MgCl2, 10 mM CoASH, 10 mM ATP, 5 mM TCEP, 0.1 U of inorganic pyrophosphatase, 0.25 μg of Acs1 and Acs2 CoA synthetase, and 0.5 μg of WS to be tested. Assays were incubated at 37° C. overnight before thin-layer chromatography (TLC) analysis of the reaction products.
(§2) In vitro WS assay samples were extracted with 500 μl of chloroformmethanol (1:1 [vol/vol]), and extracts were analyzed by TLC with Whatman normal phase silica gel 60 plates and developed using hexane-diethyl ether-acetic acid (90:10:1 [vol/vol/vol]). TLC plates were stained with either iodine vapor or anisaldehyde solution as described earlier (Jork et al., 1990. Thin-layer chromatography reagents and detection methods, vol. 1a. Physical and chemical detection methods: fundamentals, reagents. VHC, Weinheim, Germany). Palmitoyl palmitate and triolein were used as WE and TAG reference compounds, respectively.

WS1 = assay: Coupled enzyme assay, WS substrate profile (TLC); design: key to WE formation (spot intensity of wax ester products on TLC), WS1, C10 / WE formation (spot intensity of wax ester products on TLC), WS1, C12 / WE formation (spot intensity of wax ester products on TLC), WS1, C14 / WE formation (spot intensity of wax ester products on TLC), WS1, C16 / WE formation (spot intensity of wax ester products on TLC), WS1, Phytol / WE formation (spot intensity of wax ester products on TLC), WS1, Farnesol: no activity (−); ranging from no activity (−) to most active (+++); ranging from no activity (−) to most active (+++); most active (+++); settings: 12 h at 37° C., each substrate 250 μM; for WE formation (spot intensity of wax ester products on TLC), WS1, Farnesol: alcohol farnesol; for WE formation (spot intensity of wax ester products on TLC), WS1, Phytol: alcohol phytol; for WE formation (spot intensity of wax ester products on TLC), WS1, C10: fatty alcohol C10; for WE formation (spot intensity of wax ester products on TLC), WS1, C12: fatty alcohol C12; for WE formation (spot intensity of wax ester products on TLC), WS1, C14: fatty alcohol C14; for WE formation (spot intensity of wax ester products on TLC), WS1, C16: fatty alcohol C16
Experimental: as §1, §2

WS2 [2] = target: T1, WS2; assay: Kinetic WS assay, spectrophotometric (CoA release, DTNB); settings: both substrates 1 mM; for Acyl-CoA specificity of WS2: hexadecanol as acyl acceptor; for Fatty/isoprenoid alcohol specificity of WS2: palmitoyl-CoA as acyl donor
Experimental: Assay reactions were preincubated at 37° C. for 5 min before the reactions were started by the addition of enzyme. Heat-denatured enzyme (99° C. for 15 min) was used as a negative control.
Acyl-CoA and fatty/isoprenoid alcohol specificity of WS2 was determined in the same manner as described for the kinetic WS assay with assumed saturating conditions containing both the fatty/isoprenoid alcohol and acyl-CoA substrates at a concentration of 1 mM. Acyl-CoA specificity was measured with hexadecanol as acyl acceptor, whereas palmitoyl-CoA was used as acyl donor to determine alcohol specificity.
A spectrophotometric assay was developed to determine the kinetic properties of WS1 and WS2. […] The specific activities of WS1, WS2, and Acinetobacter WS/DGAT were measured with palmitoyl-CoA and hexadecanol, palmitoyl-CoA and phytol, and phytanoyl-CoA and phytol. Phytanoyl-CoA for these assays was enzymatically synthesized from phytanic acid and CoA using the above-characterized isoprenoid/acyl-CoA synthetase Acs2.

Structure (SMILES)	WE formation (spot intensity of wax ester products on TLC), WS2, Farnesol (WS2 [1])	WE formation (spot intensity of wax ester products on TLC), WS2, Phytol (WS2 [1])	WE formation (spot intensity of wax ester products on TLC), WS2, C10 (WS2 [1])	WE formation (spot intensity of wax ester products on TLC), WS2, C12 (WS2 [1])	WE formation (spot intensity of wax ester products on TLC), WS2, C14 (WS2 [1])	WE formation (spot intensity of wax ester products on TLC), WS2, C16 (WS2 [1])	WE formation (spot intensity of wax ester products on TLC), WS1, Farnesol (WS1)	WE formation (spot intensity of wax ester products on TLC), WS1, Phytol (WS1)	WE formation (spot intensity of wax ester products on TLC), WS1, C10 (WS1)	WE formation (spot intensity of wax ester products on TLC), WS1, C12 (WS1)	WE formation (spot intensity of wax ester products on TLC), WS1, C14 (WS1)	WE formation (spot intensity of wax ester products on TLC), WS1, C16 (WS1)	Acyl-CoA specificity of WS2 (WS2 [2])	Fatty/isoprenoid alcohol specificity of WS2 (WS2 [2])
CCCCCCCCCCCCCCCCCCCC(=O)O [C20]	+	+	−	−	+	+	++	++	+	+	+	+		
CCCCCCCCCCCC(=O)O [C12]	++	+	+	+	+	+	+++	−	−	+	+	+		
CCCCCCCCCCO [Decanol]														more readily taken up for WE synthesis than the equivalent-chain-length acyl-CoA carbon chain
CCCCCCCCCCCCO [dodecanol]														more readily taken up for WE synthesis than the equivalent-chain-length acyl-CoA carbon chain
CCCCCCCCCC(=O)O [C10]	+	+	+	+	−	+	+++	−	+	+	−	+		
CCCCCCCCCCCCCC(=O)O [C14]	++	+	++	+	++	+	++	+	−	−	++	+		
CCCCCCCCCCCCCCCCCC(=O)O [C18]	++	+	+	+	+	+	++	++	++	+	++	+		

Further lines, with some results ahead:

WE formation (spot intensity of wax ester products on TLC), WS2, Farnesol (WS2 [1])	WE formation (spot intensity of wax ester products on TLC), WS2, Phytol (WS2 [1])	WE formation (spot intensity of wax ester products on TLC), WS2, C10 (WS2 [1])	WE formation (spot intensity of wax ester products on TLC), WS2, C12 (WS2 [1])	WE formation (spot intensity of wax ester products on TLC), WS2, C14 (WS2 [1])	WE formation (spot intensity of wax ester products on TLC), WS2, C16 (WS2 [1])	WE formation (spot intensity of wax ester products on TLC), WS1, Farnesol (WS1)	WE formation (spot intensity of wax ester products on TLC), WS1, Phytol (WS1)	WE formation (spot intensity of wax ester products on TLC), WS1, C10 (WS1)	WE formation (spot intensity of wax ester products on TLC), WS1, C12 (WS1)	WE formation (spot intensity of wax ester products on TLC), WS1, C14 (WS1)	WE formation (spot intensity of wax ester products on TLC), WS1, C16 (WS1)	Acyl-CoA specificity of WS2 (WS2 [2])	Structure (SMILES)	Fatty/isoprenoid alcohol specificity of WS2 (WS2 [2])
												readily accepted	CC/C=C\C/C=C\C/C=C\CCCCCCCC(=O)SCCNC(=O)CCNC(=O)[C@H](O)C(C)(C)COP(=O)(O)OP(=O)(O)OC[C@H]1O[C@@H](n2cnc3c(N)ncnc32)[C@H](O)[C@@H]1OP(=O)(O)O [linolenoyl-CoA, linolenoyl-CoA (C18:3)]	
												readily accepted	CCCCCCCCCCCCCCCCCCCC(=O)SCCNC(=O)CCNC(=O)[C@H](O)C(C)(C)COP(=O)(O)OP(=O)(O)OC[C@H]1O[C@@H](n2cnc3c(N)ncnc32)[C@H](O)[C@@H]1OP(=O)(O)O [arachidoyl-CoA, arachidoyl-CoA (C20:0)]	
												not accepted at all	CCCCCCCCCCCC(=O)SCCNC(=O)CCNC(=O)[C@H](O)C(C)(C)COP(=O)(O)OP(=O)(O)OC[C@H]1O[C@@H](n2cnc3c(N)ncnc32)[C@H](O)[C@@H]1OP(=O)(O)O [lauroyl-CoA, lauroyl-CoA (C12)]	
												poorly converted	CCCCCCCCCCCCCC(=O)SCCNC(=O)CCNC(=O)[C@H](O)C(C)(C)COP(=O)(O)OP(=O)(O)OC[C@H]1O[C@@H](n2cnc3c(N)ncnc32)[C@H](O)[C@@H]1OP(=O)(O)O [myristoyl-CoA, myristoyl-CoA (C14:0)]	
												readily accepted	CCCCCCCCCCCCCCCCCC(=O)SCCNC(=O)CCNC(=O)[C@H](O)C(C)(C)COP(=O)(O)OP(=O)(O)OC[C@H]1O[C@@H](n2cnc3c(N)ncnc32)[C@H](O)[C@@H]1OP(=O)(O)O [stearoyl-CoA, stearoyl-CoA (C18:0)]	
−	+	+	+	+	+	+	−	−	+	+	−		CC/C=C\C/C=C\C/C=C\CCCCCCCC(=O)O [C18Δcis9, 12, 15]	
++	++	++	++	+++	+++	++	+++	+	++	++	++		CCCCCC/C=C\CCCCCCCC(=O)O [C16Δcis9]	
